According to ChEMBL document CHEMBL3991601, “The target landscape of clinical kinase drugs” (Science, 2017):
Active and inactive are the calls of the source.

Tests used:
[1] = target: Adenylate kinase 2, mitochondrial (Homo sapiens, UniProt P54819)
[2] = target: T1, Probable ATP-dependent RNA helicase DDX6 (Homo sapiens, UniProt P26196)
T1 sequence (P26196 whole entry): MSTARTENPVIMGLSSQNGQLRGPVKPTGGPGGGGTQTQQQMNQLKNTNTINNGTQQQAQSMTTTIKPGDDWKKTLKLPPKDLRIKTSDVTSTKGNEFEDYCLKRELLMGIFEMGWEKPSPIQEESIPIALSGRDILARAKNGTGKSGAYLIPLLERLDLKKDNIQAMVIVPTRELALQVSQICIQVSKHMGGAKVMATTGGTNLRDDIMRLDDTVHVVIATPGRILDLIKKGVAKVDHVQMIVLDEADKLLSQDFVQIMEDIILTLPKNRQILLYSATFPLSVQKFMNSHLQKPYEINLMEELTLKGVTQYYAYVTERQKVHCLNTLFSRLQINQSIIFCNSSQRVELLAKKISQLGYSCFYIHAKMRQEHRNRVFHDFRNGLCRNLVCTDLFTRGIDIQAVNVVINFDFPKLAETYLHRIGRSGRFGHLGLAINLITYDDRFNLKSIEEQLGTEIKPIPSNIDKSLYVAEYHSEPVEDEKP

Ephrin type-A receptor 2 = Ephrin type-A receptor 2 (Homo sapiens, UniProt P29317)
[3] = target: T2, Cyclin-G-associated kinase (Homo sapiens, UniProt O14976)
T2 sequence (O14976 whole entry): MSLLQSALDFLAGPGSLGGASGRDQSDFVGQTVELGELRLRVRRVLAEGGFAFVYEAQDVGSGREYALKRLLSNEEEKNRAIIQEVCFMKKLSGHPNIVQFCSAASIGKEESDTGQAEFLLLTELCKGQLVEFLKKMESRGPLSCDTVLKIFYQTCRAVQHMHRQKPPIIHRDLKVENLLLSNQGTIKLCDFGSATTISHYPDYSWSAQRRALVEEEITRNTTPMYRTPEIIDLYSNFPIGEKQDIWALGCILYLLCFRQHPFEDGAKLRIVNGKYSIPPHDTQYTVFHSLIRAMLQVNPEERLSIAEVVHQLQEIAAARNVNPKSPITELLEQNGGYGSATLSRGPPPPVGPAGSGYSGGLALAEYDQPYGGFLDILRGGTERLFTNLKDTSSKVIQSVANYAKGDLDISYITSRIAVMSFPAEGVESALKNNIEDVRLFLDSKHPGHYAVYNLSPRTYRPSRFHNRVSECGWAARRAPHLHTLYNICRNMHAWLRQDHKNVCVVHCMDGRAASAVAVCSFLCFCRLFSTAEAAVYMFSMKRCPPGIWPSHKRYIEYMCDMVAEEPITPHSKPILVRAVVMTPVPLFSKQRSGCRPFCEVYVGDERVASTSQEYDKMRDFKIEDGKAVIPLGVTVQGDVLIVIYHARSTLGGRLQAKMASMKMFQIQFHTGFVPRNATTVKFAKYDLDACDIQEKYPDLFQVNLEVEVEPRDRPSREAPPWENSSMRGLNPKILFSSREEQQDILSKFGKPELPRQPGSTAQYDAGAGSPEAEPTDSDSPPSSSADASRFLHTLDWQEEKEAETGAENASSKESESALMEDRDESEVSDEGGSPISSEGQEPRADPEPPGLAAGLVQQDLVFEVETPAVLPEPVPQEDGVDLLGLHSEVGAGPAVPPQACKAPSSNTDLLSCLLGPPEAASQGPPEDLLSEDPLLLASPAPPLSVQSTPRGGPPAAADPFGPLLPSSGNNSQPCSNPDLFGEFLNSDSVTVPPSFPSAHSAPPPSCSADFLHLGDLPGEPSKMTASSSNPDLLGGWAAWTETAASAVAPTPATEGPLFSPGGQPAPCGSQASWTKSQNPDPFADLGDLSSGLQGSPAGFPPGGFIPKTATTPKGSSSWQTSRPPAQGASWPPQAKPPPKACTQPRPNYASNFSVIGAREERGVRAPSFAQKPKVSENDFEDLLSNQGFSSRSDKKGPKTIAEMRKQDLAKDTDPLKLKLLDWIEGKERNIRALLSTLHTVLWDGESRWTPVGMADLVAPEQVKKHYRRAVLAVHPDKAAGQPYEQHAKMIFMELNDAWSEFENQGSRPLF

Insulin receptor = Insulin receptor (Homo sapiens, UniProt P06213)
[4] = target: Mitogen-activated protein kinase 7 (Homo sapiens, UniProt Q13164)
[5] = target: T3, MAP kinase-activated protein kinase 5 (Homo sapiens, UniProt Q8IW41)
T3 sequence (Q8IW41 whole entry): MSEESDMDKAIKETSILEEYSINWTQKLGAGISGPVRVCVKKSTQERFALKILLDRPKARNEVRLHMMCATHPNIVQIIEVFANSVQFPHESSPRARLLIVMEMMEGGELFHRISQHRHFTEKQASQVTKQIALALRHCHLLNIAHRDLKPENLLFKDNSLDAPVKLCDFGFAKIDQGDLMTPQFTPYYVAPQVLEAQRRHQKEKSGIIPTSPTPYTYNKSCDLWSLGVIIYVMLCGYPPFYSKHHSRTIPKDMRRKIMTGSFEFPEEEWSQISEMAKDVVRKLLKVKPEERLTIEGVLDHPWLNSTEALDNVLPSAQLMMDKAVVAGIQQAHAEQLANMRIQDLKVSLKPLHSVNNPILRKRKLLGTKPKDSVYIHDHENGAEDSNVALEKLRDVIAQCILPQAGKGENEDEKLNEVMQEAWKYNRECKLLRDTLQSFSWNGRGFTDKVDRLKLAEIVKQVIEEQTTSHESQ

[6] = target: T4, Phosphatidylinositol 5-phosphate 4-kinase type-2 gamma (Homo sapiens, UniProt Q8TBX8)
T4 sequence (Q8TBX8 whole entry): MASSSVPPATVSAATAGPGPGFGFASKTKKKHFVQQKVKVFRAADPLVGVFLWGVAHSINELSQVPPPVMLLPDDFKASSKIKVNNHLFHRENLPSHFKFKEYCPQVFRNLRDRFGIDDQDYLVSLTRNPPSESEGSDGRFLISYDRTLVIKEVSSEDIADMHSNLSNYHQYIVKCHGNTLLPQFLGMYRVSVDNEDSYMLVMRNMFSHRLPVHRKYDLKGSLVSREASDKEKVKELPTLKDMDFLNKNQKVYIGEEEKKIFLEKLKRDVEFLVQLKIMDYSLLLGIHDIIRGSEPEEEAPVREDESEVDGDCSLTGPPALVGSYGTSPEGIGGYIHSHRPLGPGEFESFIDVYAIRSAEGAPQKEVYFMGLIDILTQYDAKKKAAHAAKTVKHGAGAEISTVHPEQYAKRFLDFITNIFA

[7] = target: Ribosomal protein S6 kinase alpha-3 (Homo sapiens, UniProt P51812)

Measured: Kd
Note: in the data inactive means no Kd found up to 30 µM.

Sequence of Insulin receptor (P06213 28-758 limits assumed): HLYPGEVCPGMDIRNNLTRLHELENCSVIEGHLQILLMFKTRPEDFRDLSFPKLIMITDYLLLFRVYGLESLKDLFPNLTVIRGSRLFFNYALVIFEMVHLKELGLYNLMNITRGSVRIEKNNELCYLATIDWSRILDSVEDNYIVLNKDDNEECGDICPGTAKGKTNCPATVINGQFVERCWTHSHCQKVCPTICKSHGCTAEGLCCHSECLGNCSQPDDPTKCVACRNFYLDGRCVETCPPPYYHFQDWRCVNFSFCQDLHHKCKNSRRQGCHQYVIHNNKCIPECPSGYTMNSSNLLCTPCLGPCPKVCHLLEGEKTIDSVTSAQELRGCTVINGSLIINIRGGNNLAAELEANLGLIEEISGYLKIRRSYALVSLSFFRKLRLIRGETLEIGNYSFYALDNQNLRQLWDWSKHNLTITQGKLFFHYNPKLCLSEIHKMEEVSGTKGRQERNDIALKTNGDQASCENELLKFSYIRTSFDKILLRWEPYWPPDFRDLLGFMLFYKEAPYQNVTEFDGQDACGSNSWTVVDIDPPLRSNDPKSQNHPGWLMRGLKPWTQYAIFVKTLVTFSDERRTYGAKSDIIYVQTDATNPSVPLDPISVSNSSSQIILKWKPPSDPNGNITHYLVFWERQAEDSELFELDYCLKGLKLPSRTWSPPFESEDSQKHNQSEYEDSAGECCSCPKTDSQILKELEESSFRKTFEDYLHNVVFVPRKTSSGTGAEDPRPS
Sequence of Insulin receptor (P06213 763-1382 limits assumed): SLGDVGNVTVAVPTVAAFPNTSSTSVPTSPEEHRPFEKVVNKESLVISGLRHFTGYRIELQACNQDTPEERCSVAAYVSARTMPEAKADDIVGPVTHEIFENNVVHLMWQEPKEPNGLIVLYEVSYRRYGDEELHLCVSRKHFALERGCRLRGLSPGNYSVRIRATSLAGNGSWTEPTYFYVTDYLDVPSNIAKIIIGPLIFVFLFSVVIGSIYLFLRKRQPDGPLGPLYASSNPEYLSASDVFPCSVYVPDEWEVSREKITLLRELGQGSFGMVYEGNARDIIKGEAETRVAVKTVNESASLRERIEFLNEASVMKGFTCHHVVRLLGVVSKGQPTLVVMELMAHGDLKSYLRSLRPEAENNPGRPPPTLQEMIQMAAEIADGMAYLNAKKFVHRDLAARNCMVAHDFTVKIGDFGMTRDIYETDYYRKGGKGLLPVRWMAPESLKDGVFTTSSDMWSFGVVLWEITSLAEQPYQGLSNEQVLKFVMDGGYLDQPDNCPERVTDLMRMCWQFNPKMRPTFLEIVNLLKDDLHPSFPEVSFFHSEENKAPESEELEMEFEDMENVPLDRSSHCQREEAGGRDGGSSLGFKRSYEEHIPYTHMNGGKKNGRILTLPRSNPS
Sequence of Mitogen-activated protein kinase 7 (Q13164 whole entry): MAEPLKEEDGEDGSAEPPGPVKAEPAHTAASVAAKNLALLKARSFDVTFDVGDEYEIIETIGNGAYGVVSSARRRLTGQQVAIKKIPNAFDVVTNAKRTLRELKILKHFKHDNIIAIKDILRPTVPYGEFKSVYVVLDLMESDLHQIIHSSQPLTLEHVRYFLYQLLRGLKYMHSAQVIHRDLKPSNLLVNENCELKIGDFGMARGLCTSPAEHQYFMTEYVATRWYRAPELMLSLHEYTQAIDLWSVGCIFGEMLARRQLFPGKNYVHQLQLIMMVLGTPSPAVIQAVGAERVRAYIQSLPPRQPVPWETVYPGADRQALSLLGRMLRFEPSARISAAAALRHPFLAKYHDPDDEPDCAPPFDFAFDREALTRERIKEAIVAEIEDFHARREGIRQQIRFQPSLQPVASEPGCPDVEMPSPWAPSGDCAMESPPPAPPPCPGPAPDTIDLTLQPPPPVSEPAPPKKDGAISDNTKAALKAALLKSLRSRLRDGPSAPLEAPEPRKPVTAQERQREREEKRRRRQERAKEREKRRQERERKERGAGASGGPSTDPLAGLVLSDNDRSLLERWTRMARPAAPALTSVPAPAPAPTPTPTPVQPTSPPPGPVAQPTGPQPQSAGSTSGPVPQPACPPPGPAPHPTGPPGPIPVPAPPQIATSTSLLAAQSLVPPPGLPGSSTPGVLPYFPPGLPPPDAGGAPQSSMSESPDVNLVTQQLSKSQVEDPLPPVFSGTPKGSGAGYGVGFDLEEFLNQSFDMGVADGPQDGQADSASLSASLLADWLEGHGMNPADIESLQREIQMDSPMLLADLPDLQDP
Sequence of Ribosomal protein S6 kinase alpha-3 (P51812 whole entry): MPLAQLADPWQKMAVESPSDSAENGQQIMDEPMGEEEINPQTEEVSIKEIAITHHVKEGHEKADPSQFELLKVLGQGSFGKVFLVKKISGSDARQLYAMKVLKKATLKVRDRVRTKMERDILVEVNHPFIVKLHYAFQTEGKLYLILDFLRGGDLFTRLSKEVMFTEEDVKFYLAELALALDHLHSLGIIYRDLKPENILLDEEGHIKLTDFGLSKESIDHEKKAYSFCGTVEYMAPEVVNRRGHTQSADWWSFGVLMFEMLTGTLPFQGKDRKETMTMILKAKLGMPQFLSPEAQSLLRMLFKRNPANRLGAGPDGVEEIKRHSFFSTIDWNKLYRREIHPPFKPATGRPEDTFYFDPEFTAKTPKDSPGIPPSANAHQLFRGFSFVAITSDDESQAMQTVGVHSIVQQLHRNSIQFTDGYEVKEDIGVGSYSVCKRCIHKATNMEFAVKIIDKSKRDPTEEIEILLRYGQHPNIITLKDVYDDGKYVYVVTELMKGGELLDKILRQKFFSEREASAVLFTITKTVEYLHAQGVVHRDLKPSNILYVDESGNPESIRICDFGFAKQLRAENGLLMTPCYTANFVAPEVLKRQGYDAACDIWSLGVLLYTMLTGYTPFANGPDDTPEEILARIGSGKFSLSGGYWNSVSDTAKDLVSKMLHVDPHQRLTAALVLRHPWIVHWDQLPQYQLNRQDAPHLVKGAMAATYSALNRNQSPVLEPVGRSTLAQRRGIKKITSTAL
Sequence of Ephrin type-A receptor 2 (P29317 whole entry): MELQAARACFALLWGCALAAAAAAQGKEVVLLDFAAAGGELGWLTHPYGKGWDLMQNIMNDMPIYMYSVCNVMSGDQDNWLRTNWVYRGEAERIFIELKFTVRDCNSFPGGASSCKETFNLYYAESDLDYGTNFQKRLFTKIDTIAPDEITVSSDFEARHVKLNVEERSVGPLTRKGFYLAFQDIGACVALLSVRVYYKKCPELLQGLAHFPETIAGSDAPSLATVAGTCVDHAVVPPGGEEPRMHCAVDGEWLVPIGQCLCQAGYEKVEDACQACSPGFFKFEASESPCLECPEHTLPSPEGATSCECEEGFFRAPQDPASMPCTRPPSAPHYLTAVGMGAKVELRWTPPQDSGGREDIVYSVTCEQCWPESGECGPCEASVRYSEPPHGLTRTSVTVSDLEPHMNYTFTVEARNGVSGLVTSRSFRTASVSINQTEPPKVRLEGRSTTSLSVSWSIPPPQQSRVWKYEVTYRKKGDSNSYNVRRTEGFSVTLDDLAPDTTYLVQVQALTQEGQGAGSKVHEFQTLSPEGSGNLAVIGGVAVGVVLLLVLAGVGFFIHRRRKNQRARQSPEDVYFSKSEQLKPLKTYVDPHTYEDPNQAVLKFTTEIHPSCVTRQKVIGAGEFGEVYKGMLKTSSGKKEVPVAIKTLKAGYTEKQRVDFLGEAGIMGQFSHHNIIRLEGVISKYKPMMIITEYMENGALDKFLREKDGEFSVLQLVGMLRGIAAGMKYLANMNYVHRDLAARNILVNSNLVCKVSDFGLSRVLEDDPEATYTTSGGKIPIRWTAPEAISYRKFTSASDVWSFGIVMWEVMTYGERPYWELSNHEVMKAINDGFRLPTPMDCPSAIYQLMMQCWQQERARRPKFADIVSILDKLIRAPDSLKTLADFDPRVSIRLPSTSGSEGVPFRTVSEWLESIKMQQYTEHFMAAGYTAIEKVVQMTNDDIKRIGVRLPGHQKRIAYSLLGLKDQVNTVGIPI

CC(C)Nc1cc(-c2c[nH]c(C(=O)N[C@H](CO)c3cccc(Cl)c3)c2)c(Cl)cn1 [ULIXERTINIB]
inactive: [1] > 30 µM | [2] > 30 µM | Ephrin type-A receptor 2 > 30 µM | [3] > 30 µM | Insulin receptor > 30 µM | [4] > 30 µM | [5] > 30 µM | [6] > 30 µM | [7] > 30 µM
